From patent US9452164B2, “Imidazopyridine derivatives, process for preparation thereof and therapeutic use thereof” (SANOFI, priority 2010, dated 2016)
Where a name gives a salt, the structure may show the parent alone. One block for each molecule: values may come before it.

How the values were obtained:
OF1 female mice = assay: Model of inflammatory angiogenesis in mice (air pocket granuloma, carmine red dye); format: in vivo; details: for % inhibition of the angiogenic parameter (dye content) / % inhibition of the inflammatory parameter (mass of the granuloma): daily oral, mice; for dye content corresponding to the angiogenesis / weight of the granuloma (dry weight of the skin), inflammation part: one week of daily treatment
Method: The model described by Colville-Nash et al., in 1995, makes it possible to study pharmacological agents capable of modulating the occurrence of angiogenesis in an inflammatory context. The model is developed on OF1 female mice (Charles River Laboratories) weighing approximately 25 g, and by groups of 12. The animals are anaesthetized with sodium pentobarbital (60 mg/kg; Sanofi Nutrition Sante animale)) intraperitoneally. An air pocket is created on the back of the mouse by subcutaneous injection of 3 ml of air. After they have awoken, the animals receive a treatment generally by gavage, and receive an injection of 0.5 ml of Freund's adjuvant (Sigma) with 0.1% of croton oil (Sigma) in the pocket. Seven days later, the mice are again anaesthetized and placed on a hot plate at 40° C. One ml of carmine red (Aldrich Chemicals, 5% in 10% of gelatin) is injected into the tail vein. The animals are then placed at 4° C. for 2-3 hours. The skins are then taken and dried for 24 h in an oven at 56° C. The dry tissues are weighed and placed in 1.8 ml of digestion solution (2 mM dithiothreitol, 20 mM Na2HPO4, 1 mM EDTA, 12 U/ml papain) for 24 h. The dye is then dissolved in 0.2 ml of 5M NaOH. The skins are centrifuged at 2000 rpm for 10 min at ambient temperature. The supernatants are filtered through 0.2 μm cellulose acetate membranes. The filtrates are read in a spectrophotometer at 492 nm against a carmine red calibration range. Two parameters are studyed: the dry weight of the granuloma and the amount of dye after digestion of the tissues. The results are expressed as mean values (±sem). The differences between the groups are tested with an ANOVA followed by a Dunnett's test, of which the reference group is the “solvent control” group.
The FGF-R antagonists are evaluated between 1 and 50 mg/kg using methylcellulose/tween (0.6% v/v) as vehicle or any other vehicle which allows the active ingredient to be solubilized. The molecules are administered daily, orally (one or two times a day) by gavage. The antagonists of the present invention are considered to be active as long as they enable a significant reduction in the angiogenic parameter, i.e. a reduction in the amount of carmine red dye in the skins of the animals tested.

[1] = tested on: HUVEC cells stimulated with FGF-2; assay: FGF-2-induced in vitro proliferation of HUVEC cells; format: cell-based, human; details: HUVEC stimulated with FGF-2, ATP luminescence
Method: To do this, HUVEC human vein endothelial cells (promocell, C-12200) are seeded at a rate of 5000 cells per well of a 96-well plate (Biocoat collagen I cellware, Becton Dickinson 354650) in 100 μl of RPMI 1640 deprivation medium (Invitrogen, 31872-025) supplemented with 0.5% or 1% FCS, 2 mM glutamine, 1× sodium pyruvate (Invitrogen; 11360-039) and 1×NEAA (Invitrogen, 11140-035), overnight at 37° C. in the presence of 5% CO2. The following morning, the medium is suctioned-off and replaced with 50 μl of deprivation medium containing the antagonists at a 2× concentration, to which are added 50 μl of FGF-2 (R&D systems, 133-FB-025; Invitrogen, PHG0026) at 0.2 ng/ml (i.e. 2×). After 48 or 72 h, 100 μl of Cell Titer-GLO™ Luminescent Cell Viability Assay (Promega, G7571) are added for 10 min in order to measure, by means of a luminometer, the amount of ATP present in the cells and which is in relation to the number of cells per well corresponding to the cell proliferation.
The antagonists of the present invention are considered to be active as long as they are capable of inhibiting FGF-2-induced proliferation of HUVEC cells at a dose less than or equal to 300 nM.

[2] = tested on: HUVEC cells stimulated with FGF-2; assay: FGF-2-induced in vitro angiogenesis of HUVEC cells; format: cell-based, human; details: HUVEC stimulated with FGF-2, 24 h, pseudotubule network length
Method: To do this, matrices composed of matrigel (growth factor reduced matrigel, Becton Dickinson 356230) and collagen (rat tail collagen type I, Becton Dickinson 354236) are deposited, at a rate of 160 μl, into each chamberslide well (Biocoat Cellware collagen, Type I, 8-well culturesides: Becton Dickinson 354630), or 60 μl per well of 96-well plates (Biocoat collagen I cellware, Becton Dickinson 354407). The matrix is prepared by mixing ⅓ of matrigel, 1 mg/ml final concentration of collagen, 0.1N NaOH (0.026× the volume of collagen in μl) and 1×PBS, and the volume is then adjusted with water. The gels are kept at 37° C. for 1 hour so as to allow them to polymerize. […] After 24 hours, the length of the network of microtubules formed was measured using a computer-assisted image analysis system (Imagenia Biocom, Courtaboeuf, France) and the total length of the pseudotubules in each well was determined. The average total length of the microcapillary network was calculated in μm for each condition corresponding to the average of 6 replicates. […]
In this experiment, the molecules are evaluated at 3 and 30 nM on induction of the angiogenesis of HUVEC human cells by FGF-2.

Structure (SMILES): CCCn1c(=O)n(CCOc2ccc(F)cc2)c(=O)c2cc(C(=O)c3nc(-c4cccc(C(=O)[O-])c4)c4ccccn34)ccc21.[Na+] [Compound No. 223, Sodium Salt of 3-[3-({3-[2-(4-fluorophenoxy)ethyl]-1-propyl-2,4-dioxo-1,2,3,4-tetrahydroquinazolin-6-yl}carbonyl)imidazo[1,5-a]pyridin-1-yl]benzoic acid]
- % inhibition of the angiogenic parameter (dye content) (OF1 female mice; 10 mg/kg, one week): 43%
- % inhibition of the inflammatory parameter (mass of the granuloma) (OF1 female mice; 10 mg/kg, one week): 25%

Structure (SMILES): Cn1c(=O)n(Cc2ccc(F)cc2)c(=O)c2cc(C(=O)c3nc(-c4cccc(C(=O)[O-])c4)c4ccccn34)ccc21.[Na+] [Compound No. 49, Sodium Salt of 3-(3-{[3-(4-fluorobenzyl)-1-methyl-2,4-dioxo-1,2,3,4-tetrahydroquinazolin-6-yl]carbonyl}imidazo[1,5-a]pyridin-1-yl)benzoic acid]
- inhibition of proliferation as percentage of the control ([1]; 30 nM): 9%
- inhibition of proliferation as percentage of the control ([1]; 300 nM): 29%
- % inhibition of the angiogenic parameter (dye content) (OF1 female mice; 10 mg/kg, one week): 46%
- % inhibition of the inflammatory parameter (mass of the granuloma) (OF1 female mice; 10 mg/kg, one week): 40%
- dye content corresponding to the angiogenesis (OF1 female mice; 10 mg/kg): significantly reduce
- weight of the granuloma (dry weight of the skin), inflammation part (OF1 female mice; 10 mg/kg): significantly reduce

- melting point: 305 °C
Structure (SMILES): CCCn1c(C)nc2ccc(C(=O)c3nc(-c4cccc(C(=O)O)c4)c4ccccn34)cc2c1=O [Compound No. 53, 3-{3-[(2-Methyl-4-oxo-3-propyl-3,4-dihydroquinazolin-6-yl)carbonyl]imidazo[1,5-a]pyridin-1-yl}benzoic acid]

- melting point: 345 to 346 °C
Structure (SMILES): CCCn1c(=O)[nH]c2ccc(C(=O)c3nc(-c4cccc(C(N)=O)c4)c4ccccn34)cc2c1=O [Compound No. 29, 3-{3-[(2,4-Dioxo-3-propyl-1,2,3,4-tetrahydroquinazolin-6-yl)carbonyl]imidazo[1,5-a]pyridin-1-yl}benzamide]

- melting point: 384 °C
Structure (SMILES): CCCn1c(=O)[nH]c2ccc(C(=O)c3ncc4ccc(C(=O)O)cn34)cc2c1=O [Compound No. 8, 3-[(2,4-Dioxo-3-propyl-1,2,3,4-tetrahydroquinazolin-6-yl)carbonyl]imidazo[1,5-a]pyridine-6-carboxylic acid]

- melting point: 238 °C
Structure (SMILES): CCCn1c(C)nc2ccc(C(=O)c3nc(-c4cccc(C(N)=O)c4)c4ccccn34)cc2c1=O [Compound No. 55, 3-{3-[(2-Methyl-4-oxo-3-propyl-3,4-dihydroquinazolin-6-yl)carbonyl]imidazo[1,5-a]pyridin-1-yl}benzamide]

- melting point: 289 °C
Structure (SMILES): O=C(c1ccc2nc[nH]c(=O)c2c1)c1ncc2ccccn12 [Compound No. 3, 6-(Imidazo[1,5-a]pyridin-3-ylcarbonyl)quinazolin-4(3H)-one]

Structure (SMILES): CCCn1c(=O)[nH]c2ccc(C(=O)c3nc(-c4cccc(C(=O)[O-])c4)c4ccccn34)cc2c1=O.[Na+] [Compound No. 10, Sodium Salt of 3-{3-[(2,4-dioxo-3-propyl-1,2,3,4-tetrahydroquinazolin-6-yl)carbonyl]imidazo[1,5-a]pyridin-1-yl}benzoic acid]
- % inhibition of the angiogenic parameter (dye content) (OF1 female mice; 30 mg/kg): 19%
- % inhibition of the inflammatory parameter (mass of the granuloma) (OF1 female mice; 30 mg/kg): 19%

- melting point: 215 °C
Structure (SMILES): Cl.Cn1c(=O)n(Cc2ccc(F)cc2)c(=O)c2cc(C(=O)c3nc(-c4cccc(C(=O)OCCN5CCOCC5)c4)c4ccccn34)ccc21

- melting point: 304 °C
Structure (SMILES): CCCn1c(=O)[nH]c2ccc(C(=O)c3ncc4ccccn34)cc2c1=O [Compound No. 1, 6-(Imidazo[1,5-a]pyridin-3-ylcarbonyl)-3-propylquinazoline-2,4(1H,3H)-dione]

- melting point: 334 °C
Structure (SMILES): CCCn1c(=O)[nH]c2ccc(C(=O)c3nc(NS(C)(=O)=O)c4ccccn34)cc2c1=O [Compound No. 13, N-{3-[(2,4-Dioxo-3-propyl-1,2,3,4-tetrahydroquinazolin-6-yl)carbonyl]imidazo[1,5-a]pyridin-1-yl}methanesulphonamide]

- melting point: 247 °C
Structure (SMILES): CN(C)CCNC(=O)c1cccc(-c2nc(C(=O)c3ccc4c(c3)c(=O)n(Cc3ccc(F)cc3)c(=O)n4C)n3ccccc23)c1.Cl

Structure (SMILES): CCCn1c(=O)n(Cc2ccc(F)cc2)c(=O)c2cc(C(=O)c3nc(-c4cccc(C(=O)[O-])c4)c4ccccn34)ccc21.[Na+] [Compound No. 72, Sodium Salt of 3-(3-{[3-(4-fluorobenzyl)-1-propyl-2,4-dioxo-1,2,3,4-tetrahydroquinazolin-6-yl]carbonyl}imidazo[1,5-a]pyridin-1-yl)benzoic acid]
- inhibition of angiogenesis as a percentage of the control ([2]; 3 nM): 36%
- inhibition of angiogenesis as a percentage of the control ([2]; 30 nM): 24%
- inhibition of proliferation as percentage of the control ([1]; 30 nM): 38%
- inhibition of proliferation as percentage of the control ([1]; 300 nM): 55%
- % inhibition of the angiogenic parameter (dye content) (OF1 female mice; 10 mg/kg, one week): 43%
- % inhibition of the inflammatory parameter (mass of the granuloma) (OF1 female mice; 10 mg/kg, one week): 38%
- dye content corresponding to the angiogenesis (OF1 female mice; 10 mg/kg): significantly reduce
- weight of the granuloma (dry weight of the skin), inflammation part (OF1 female mice; 10 mg/kg): significantly reduce

- melting point: 267 °C
Structure (SMILES): Cn1c(=O)n(Cc2ccc(F)cc2)c(=O)c2cc(C(=O)c3nc(-c4cccnc4)c4ccccn34)ccc21 (as salt: hydrochloride) [Compound No. 113, 3-(4-Fluorobenzyl)-1-methyl-6-[(1-pyridin-3-ylimidazo[1,5-a]pyridin-3-yl)carbonyl]quinazoline-2,4(1H,3H)-dione]

- melting point: 276 to 277 °C
Structure (SMILES): CCCn1c(=O)[nH]c2ccc(C(=O)c3nc(-c4cccc(-c5nc(C)no5)c4)c4ccccn34)cc2c1=O [Compound No. 36, 6-({1-[3-(3-Methyl-1,2,4-oxadiazol-5-yl)phenyl]imidazo[1,5-a]pyridin-3-yl}carbonyl)-3-propylquinazoline-2,4(1H,3H)-dione]
